Test results published in publication PMC6934184, “Selective DNA-PKcs inhibition extends the therapeutic index of localized radiotherapy and chemotherapy” (The Journal of Clinical Investigation, 2019).

Test system: NHEJ-mediated DSB repair in HEK293T cells
Assay: NHEJ plasmid repair assay
Format: cell-based, Human
Details: 1 μM; 24 hours; AfeI or ScaI linearized plasmid
Description: The ability of NU5455 to impair the nonhomologous end joining (NHEJ) ability of cells was assessed using a modified version of a DNA repair assay developed by Nagel et al. ([52]), which measures the repair of a plasmid encoding blue fluorescent protein (BFP) and GFP linearized by either an ScaI or an AfeI restriction digestion. Full experimental details are given in Supplemental Methods.
Membranes were then washed in TBST and incubated with HRP-conjugated goat anti-mouse or anti-rabbit antibodies (P0447 and P0448 respectively, Dako) in 5% (w/v) milk/TBST at room temperature for 1-2 hours. Conjugates were detected using Clarity Western ECL Substrate (BioRad) and chemiluminescence imaged using the Fuji LAS-3000 Luminescent Image Analyzer System (Fujifilm).
Densitometry analysis was performed using AIDA Image Analyzer software (Raytest). The intensity of all bands was determined following a background subtraction, and the level of pDNA-PKcs stimulation determined by subtracting basal unstimulated pDNA-PKcs Ser2056 levels. pDNA-PKcs Ser2056 band intensity was calculated relative to total DNA-PKcs band intensity, and is given as percentage expression relative to irradiated, DMSO-treated cells. […]
violet laser with 440/50 emission filter to detect blue fluorescence using the VL1 channel. […]
Data were analyzed by FCS Express 6 Flow Research Edition (De Novo Software). […]

`CN(C(=O)CN1CCOCC1)c1ccc2sc3c(-c4cccc5c(=O)cc(N6CC7CCC(C6)O7)oc45)cccc3c2c1` [NU5455] was tested, and the “repair of DNA-DSBs (NHEJ plasmid repair)” value was “inhibit the repair of DNA-DSBs”.
